Type: physicochemical
Experimental: (−)-Gossypol acetic acid co-crystals were yellow or pale yellow and needle shaped. […] The co-crystals were insoluble in water. The uncorrected melting point of the co-crystals was determined to be 178-180° C. using a Mel-Temp apparatus.

solubility in acetone: readily soluble
solubility in chloroform: slightly soluble
solubility in ethanol: slightly soluble
solubility in ether: readily soluble
solubility in petroleum: sparsely soluble
solubility in water: insoluble
SMILES: Cc1cc2c(C(C)C)c(O)c(O)c(C=O)c2c(O)c1-c1c(C)cc2c(C(C)C)c(O)c(O)c(C=O)c2c1O [(−)-Gossypol acetic acid co-crystals, (−)-gossypol acetic acid]

— US7432300B2, “Gossypol co-crystals and the use thereof” (The Regents of the University of Michigan, priority 2004, dated 2008)
